Measurements as given in article PMC6566410, “Novel Diamide-Based Benzenesulfonamides as Selective Carbonic Anhydrase IX Inhibitors Endowed with Antitumor Activity: Synthesis, Biological Evaluation and In Silico Insights” (International Journal of Molecular Sciences, 2019).

Key:
hCA XII = hCA XII (Homo sapiens, UniProt O43570); assay: stopped-flow CO2 hydrase assay; conditions: for Selectivity ratio I/XII: KI hCA I / KI hCA XII; for Selectivity ratio II/XII: KI hCA II / KI hCA XII
Source text: (§2) An Applied Photophysics stopped-flow instrument was used for assaying the CA catalysed CO2 hydration activity, as reported earlier [17]. The inhibition constants were obtained by non-linear least-squares methods using PRISM 3 and the Cheng-Prusoff equation as reported earlier, and represent the mean from at least three different determinations. The four tested CA isofoms were recombinant ones obtained in-house as reported earlier [26, 27, 28, 29].

SNB-75 = assay: NCI one-dose SRB assay; format: cell-based; conditions: Homo sapiens, SNB-75 (CNS Cancer), 1.00E-5 Molar, read-out: Growth Percent
Summary of the method: (§1)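 Single-dose screen at 10^−5 M across the NCI sixty-cell-line panel, run per the US-NCI Developmental Therapeutic Program protocol. Cell growth and viability were read by sulforhodamine B colorimetric assay.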

LOX IMVI = assay: NCI one-dose SRB assay; format: cell-based; conditions: Homo sapiens, LOX IMVI (Melanoma), 1.00E-5 Molar, read-out: Growth Percent
Summary of the method: as §1

OVCAR-8 = assay: NCI one-dose SRB assay; format: cell-based; conditions: Homo sapiens, OVCAR-8 (Ovarian Cancer), 1.00E-5 Molar, read-out: Growth Percent
Summary of the method: as §1

HS 578T = assay: NCI one-dose SRB assay; format: cell-based; conditions: Homo sapiens, HS 578T (Breast Cancer), 1.00E-5 Molar, read-out: Growth Percent
Summary of the method: as §1

RXF 393 = assay: NCI one-dose SRB assay; format: cell-based; conditions: Homo sapiens, RXF 393 (Renal Cancer), 1.00E-5 Molar, read-out: Growth Percent
Summary of the method: as §1

MALME-3M = assay: NCI one-dose SRB assay; format: cell-based; conditions: Homo sapiens, MALME-3M (Melanoma), 1.00E-5 Molar, read-out: Growth Percent
Summary of the method: as §1

UACC-62 = assay: NCI one-dose SRB assay; format: cell-based; conditions: Homo sapiens, UACC-62 (Melanoma), 1.00E-5 Molar, read-out: Growth Percent
Summary of the method: as §1

IGROV1 = assay: NCI one-dose SRB assay; format: cell-based; conditions: Homo sapiens, IGROV-1, IGROV1 (Ovarian Cancer), 1.00E-5 Molar, read-out: Growth Percent
Summary of the method: as §1

NCI-H460 = assay: NCI one-dose SRB assay; format: cell-based; conditions: Homo sapiens, NCI-H460 (Non-Small Cell Lung Cancer), 1.00E-5 Molar, read-out: Growth Percent
Summary of the method: as §1

NCI-H522 = assay: NCI one-dose SRB assay; format: cell-based; conditions: Homo sapiens, NCI-H522 (Non-Small Cell Lung Cancer), 1.00E-5 Molar, read-out: Growth Percent
Summary of the method: as §1

HL-60(TB) = assay: NCI one-dose SRB assay; format: cell-based; conditions: Homo sapiens, HL-60(TB) (Leukemia), 1.00E-5 Molar, read-out: Growth Percent
Summary of the method: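 NCI-60 one-dose protocol: compound at 10^−5 M; growth and viability quantified with SRB dye.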

SF-268 = assay: NCI one-dose SRB assay; format: cell-based; conditions: Homo sapiens, SF-268 (CNS Cancer), 1.00E-5 Molar, read-out: Growth Percent
Summary of the method: as §1

TK-10 = assay: NCI one-dose SRB assay; format: cell-based; conditions: Homo sapiens, TK-10 (Renal Cancer), 1.00E-5 Molar, read-out: Growth Percent
Summary of the method: as §1

SK-MEL-28 = assay: NCI one-dose SRB assay; format: cell-based; conditions: Homo sapiens, SK-MEL-28 (Melanoma), 1.00E-5 Molar, read-out: Growth Percent
Summary of the method: as §1

HCT-15 = assay: NCI one-dose SRB assay; format: cell-based; conditions: Homo sapiens, HCT-15 (Colon Cancer), 1.00E-5 Molar, read-out: Growth Percent
Summary of the method: as §1

UACC-257 = assay: NCI one-dose SRB assay; format: cell-based; conditions: Homo sapiens, UACC-257 (Melanoma), 1.00E-5 Molar, read-out: Growth Percent
Summary of the method: as §1

SN12C = assay: NCI one-dose SRB assay; format: cell-based; conditions: Homo sapiens, SN12C (Renal Cancer), 1.00E-5 Molar, read-out: Growth Percent
Summary of the method: as §1

HOP-62 = assay: NCI one-dose SRB assay; format: cell-based; conditions: Homo sapiens, HOP-62 (Non-Small Cell Lung Cancer), 1.00E-5 Molar, read-out: Growth Percent
Summary of the method: as §1

A498 = assay: NCI one-dose SRB assay; format: cell-based; conditions: Homo sapiens, A498 (Renal Cancer), 1.00E-5 Molar, read-out: Growth Percent
Summary of the method: as §1

MDA-MB-468 = assay: NCI one-dose SRB assay; format: cell-based; conditions: Homo sapiens, MDA-MB-468 (Breast Cancer), 1.00E-5 Molar, read-out: Growth Percent
Summary of the method: as §1

786-0 = assay: NCI one-dose SRB assay; format: cell-based; conditions: Homo sapiens, 786-0 (Renal Cancer), 1.00E-5 Molar, read-out: Growth Percent
Summary of the method: as §1

MDA-MB-435 = assay: NCI one-dose SRB assay; format: cell-based; conditions: Homo sapiens, MDA-MB-435 (Melanoma), 1.00E-5 Molar, read-out: Growth Percent
Summary of the method: as §1

DU-145 = assay: NCI one-dose SRB assay; format: cell-based; conditions: Homo sapiens, DU-145 (Prostate Cancer), 1.00E-5 Molar, read-out: Growth Percent
Summary of the method: as §1

HT29 = assay: NCI one-dose SRB assay; format: cell-based; conditions: Homo sapiens, HT-29, HT29 (Colon Cancer), 1.00E-5 Molar, read-out: Growth Percent
Summary of the method: as §1

SNB-19 = assay: NCI one-dose SRB assay; format: cell-based; conditions: Homo sapiens, SNB-19 (CNS Cancer), 1.00E-5 Molar, read-out: Growth Percent
Summary of the method: as §1

EKVX = assay: NCI one-dose SRB assay; format: cell-based; conditions: Homo sapiens, EKVX (Non-Small Cell Lung Cancer), 1.00E-5 Molar, read-out: Growth Percent
Summary of the method: as §1

hCA I = hCA I (Homo sapiens, UniProt P00915); assay: stopped-flow CO2 hydrase assay
Source text: as §2

SR = assay: NCI one-dose SRB assay; format: cell-based, human; conditions: SR (Leukemia), 1.00E-5 Molar
Procedure: First, all diamide-based benzenesulfonamides herein reported 5a–h were screened for their antitumor activity at one dose (10^−5 M) assay against a panel of sixty cancer cell lines through the National Cancer Institute (NCI) Developmental Therapeutic Program (www.dtp.nci.nih.gov), according to US-NCI protocol. The cell growth and cell viability were evaluated using the sulforhodamine B (SRB) colorimetric assay.
This assay was carried out according to the protocol of the Drug Evaluation Branch, NCI, Bethesda. The cell growth and cell viability were evaluated using the sulforhodamine B (SRB) colorimetric assay, as reported earlier.

hCA IX = hCA IX (Homo sapiens, UniProt Q16790); assay: stopped-flow CO2 hydrase assay; conditions: for Selectivity ratio I/IX: KI hCA I / KI hCA IX; for Selectivity ratio II/IX: KI hCA II / KI hCA IX
Source text: as §2

hCA II = hCA II (Homo sapiens, UniProt P00918); assay: stopped-flow CO2 hydrase assay
Source text: as §2

Chain of hCA XII (O43570 25-354): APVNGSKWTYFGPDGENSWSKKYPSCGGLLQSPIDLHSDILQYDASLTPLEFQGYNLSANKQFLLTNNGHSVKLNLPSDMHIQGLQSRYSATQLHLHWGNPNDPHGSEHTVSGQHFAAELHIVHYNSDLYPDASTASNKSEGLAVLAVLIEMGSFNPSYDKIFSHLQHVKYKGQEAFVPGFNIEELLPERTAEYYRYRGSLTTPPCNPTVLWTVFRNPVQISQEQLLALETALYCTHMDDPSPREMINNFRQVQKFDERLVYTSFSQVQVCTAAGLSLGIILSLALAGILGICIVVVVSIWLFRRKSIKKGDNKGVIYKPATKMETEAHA
Chain of hCA I (P00915 whole entry): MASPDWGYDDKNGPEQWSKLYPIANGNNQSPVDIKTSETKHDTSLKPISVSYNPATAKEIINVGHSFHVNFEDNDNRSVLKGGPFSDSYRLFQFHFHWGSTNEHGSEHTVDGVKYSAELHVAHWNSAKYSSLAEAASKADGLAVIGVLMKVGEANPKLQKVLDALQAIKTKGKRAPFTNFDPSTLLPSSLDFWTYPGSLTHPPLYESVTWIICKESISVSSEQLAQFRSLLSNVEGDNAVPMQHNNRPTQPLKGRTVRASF

Structure (SMILES): COc1ccc(C=C(NC(=O)c2ccccc2)C(=O)Nc2ccc(S(N)(=O)=O)cc2)c(OC)c1 [Compound 5f, N-(1-(2,4-Dimethoxyphenyl)-3-oxo-3-((4-sulfamoylphenyl)amino)prop-1-en-2-yl)benzamide]
- Ki (hCA XII): 134 nM
- Selectivity ratio I/XII (hCA XII): 38.2
- Selectivity ratio II/XII (hCA XII): 2.2
- activity at 10 µM (SNB-75): 92.9%
- activity at 10 µM (LOX IMVI): 99.8%
- activity at 10 µM (OVCAR-8): 100%
- activity at 10 µM (HS 578T): 106%
- activity at 10 µM (RXF 393): 108%
- activity at 10 µM (MALME-3M): 104%
- activity at 10 µM (UACC-62): 97.2%
- activity at 10 µM (IGROV1): 91.9%
- activity at 10 µM (NCI-H460): 109%
- activity at 10 µM (NCI-H522): 88.2%
- activity at 10 µM (HL-60(TB)): 103%
- activity at 10 µM (SF-268): 114%
- activity at 10 µM (TK-10): 112%
- activity at 10 µM (SK-MEL-28): 109%
- activity at 10 µM (HCT-15): 99.1%
- activity at 10 µM (UACC-257): 99.6%
- activity at 10 µM (SN12C): 94.8%
- activity at 10 µM (HOP-62): 117%
- activity at 10 µM (A498): 111%
- activity at 10 µM (MDA-MB-468): 74.8%
- activity at 10 µM (786-0): 103%
- activity at 10 µM (MDA-MB-435): 97%
- activity at 10 µM (DU-145): 111%
- activity at 10 µM (HT29): 106%
- activity at 10 µM (SNB-19): 102%
- activity at 10 µM (EKVX): 97.3%
- Ki (hCA I): 5130 nM
- Growth Percent (SR): 95.41%
- Ki (hCA IX): 73.7 nM
- Selectivity ratio I/IX (hCA IX): 69.9
- Selectivity ratio II/IX (hCA IX): 4
- Ki (hCA II): 294 nM

Structure (SMILES): COc1ccc(C=C(NC(=O)c2ccccc2)C(=O)Nc2ccc(S(N)(=O)=O)cc2)cc1OC [Compound 5g, N-(1-(3,4-Dimethoxyphenyl)-3-oxo-3-((4-sulfamoylphenyl)amino)prop-1-en-2-yl)benzamide]
- Ki (hCA XII): 9.8 nM
- Selectivity ratio I/XII (hCA XII): 225.3
- Selectivity ratio II/XII (hCA XII): 45.7
- activity at 10 µM (SNB-75): 103%
- activity at 10 µM (LOX IMVI): 100%
- activity at 10 µM (OVCAR-8): 97.1%
- activity at 10 µM (HS 578T): 94.8%
- activity at 10 µM (RXF 393): 118%
- activity at 10 µM (MALME-3M): 101%
- activity at 10 µM (UACC-62): 94.3%
- activity at 10 µM (IGROV1): 91.6%
- activity at 10 µM (NCI-H460): 107%
- activity at 10 µM (NCI-H522): 89.1%
- activity at 10 µM (HL-60(TB)): 101%
- activity at 10 µM (SF-268): 104%
- activity at 10 µM (TK-10): 110%
- activity at 10 µM (SK-MEL-28): 109%
- activity at 10 µM (HCT-15): 101%
- activity at 10 µM (UACC-257): 101%
- activity at 10 µM (SN12C): 97.6%
- activity at 10 µM (HOP-62): 102%
- activity at 10 µM (A498): 109%
- activity at 10 µM (MDA-MB-468): 111%
- activity at 10 µM (786-0): 109%
- activity at 10 µM (MDA-MB-435): 107%
- activity at 10 µM (DU-145): 117%
- activity at 10 µM (HT29): 106%
- activity at 10 µM (SNB-19): 100%
- activity at 10 µM (EKVX): 103%
- Ki (hCA I): 2210 nM
- Growth Percent (SR): 82.62%
- Ki (hCA IX): 123 nM
- Selectivity ratio I/IX (hCA IX): 17.9
- Selectivity ratio II/IX (hCA IX): 3.6
- Ki (hCA II): 448 nM
